According to patent publication US20050227355A1, “Serum-free cell culture media” (priority 1996, published 2005):
Entries after “also recorded” stand apart in the source; their conditions may differ.

Legend:
adherent cells = assay: Growth stimulating effect of alcohols in adherent cell culture (Example 10); assay type: cell-based; details: concentrations around 0.1%
Excerpt: Cell culture was again carried out as described in Example 8, but with the addition of a number of alcohols rather than sterols.
Test concentration: 1×=0.1%, or 5×=0.5%.

Hybridoma cells = assay: Growth promoting effect of alcohols on hybridoma cells (Example 1); assay type: cell-based, Mouse; details: for effect on cell growth (inhibition of cell growth): RPMI-SR3 protein-free medium, alcohol up to 1.0% by vol
Protocol: • a) Hybridoma cells were cultured in RPMI 1640 supplemented with solutions A and B, described above plus 20 mM ethanolamine (referred to as RPMI-SR3), and by way of comparison in the same medium further supplemented with 10 mg/ml albumen (5% by vol.) or in RPMI 1640 supplemented with 10% v/v horse serum.

[1] = Stability of sterol against precipitation in medium; assay type: physicochemical
Protocol: The optimum sterol for cell culture should meet the following specifications: a) be stable against precipitation in medium at 37° C., b) stimulate cell growth and viability as well as does cholesterol, or better, and c) for adherent cells: produce a high surface tension in the medium for optimum adherence of the cells to the surface by hydrophobic forces.

1E6 Mouse hybridoma = assay: Sterol analogues in suspended cell culture (Example 8); assay type: cell-based; details: test concentration 2 μg/ml
Protocol: The basal media were supplemented by SSR2 described above, i.e. a solution containing 20 mg/ml PLURONIC F68, about 4 mM EDTA, about 3 mM Fe, about 40 mM sodium citrate/citric acid, about 3 mM aurintricarboxylic acid and about 1% trace elements. […] Each cul-ture was run in duplicate. As a control, cholesterol was also used, but in this case the basal medium was supplemented by ‘Solution Cx’ or ‘Solution Dx’ described above, as appropriate to the cell type. The negative controls referred to below were in each case a cell culture containing no test substance (sterol).

[2] = Surface tension of the medium; assay type: physicochemical
[3] = test system: Vero, CHO-K1 and 1E6 hybridoma cells; assay: Cell growth and morphology in media containing sterols other than cholesterol (Example 8); assay type: cell-based; details: test concentration 2 μg/ml
Protocol: The basal media used were DME/F12 for adherent cells, and RPMI-X for suspension cells. The basal media were supplemented by SSR2 described above, i.e. a solution containing 20 mg/ml PLURONIC F68, about 4 mM EDTA, about 3 mM Fe, about 40 mM sodium citrate/citric acid, about 3 mM aurintricarboxylic acid and about 1% trace elements. […] For hybridoma cells, this was still further supplemented by ethanolamine at 20 μM. Each cul-ture was run in duplicate. As a control, cholesterol was also used, but in this case the basal medium was supplemented by ‘Solution Cx’ or ‘Solution Dx’ described above, as appropriate to the cell type. The negative controls referred to below were in each case a cell culture containing no test substance (sterol). Cells were cultivated through 2 passages for adherent cells, and 3 passages for the hybridoma line having regard to the greater difficulty of morphological scoring in suspension cultures, this being compensated by the longer culture period. All cultures of the same experiment were subcultured using an identical split ratio, for example 1:10; this ratio being adjusted in the individual experiments to suit the growth rate of the positive control (see above). […] Then adherent cells were trypsinized and subcultured further for the second passage—followed by counting the number of cells when confluent for the second time. Hybridoma cells, growing in suspension, were simply diluted in medium for each new passage. Counting of all kinds of cells were generally performed using a standard Bürker chamber, and viability determined by Trypan Blue exclusion (only viable cells were counted). In some experiments, where feasible, cells were counted directly in the microscope viewing field using a calibrated grid. […] The morphological index is mainly based on three properties: single cell morphology, number of cells, and the degree of uniform distribution of cells around the culture surface (‘cellular behaviour’).

With `OCCO` [Ethylene Glycol] the “effects on cell growth and viability” value (adherent cells) was “positive effects on cell growth and viability”.

For `CCO` [Ethanol], the “effect on cell growth (inhibition of cell growth)” value (Hybridoma cells) was “positive effects on cell growth”, the “effect on cell growth (inhibition of cell growth)” value (Hybridoma cells; listed as ethanol) was “negative inhibition (i.e. promotion) of cell growth” and the “growth promoting effect in protein or serum supplemented media” value (Hybridoma cells; medium with 10 mg/ml albumen or 10% v/v horse serum) was “no growth promoting effect; also recorded: not apparent”. For the same compound, the “effects on cell growth and viability” value (adherent cells) was “positive effects on cell growth and viability”.

In the case of `CC(C)CCC[C@@H](C)[C@H]1CC[C@H]2[C@@H]3CC=C4C[C@@H](O)CC[C@]4(C)[C@H]3CC[C@]12C` [Cholesterol], the stability in medium [1] is reported as “somewhat unstable in media”, the “solubility in the final medium at storage temperature” value ([1]; 4° C., with PLURONIC F68 and ethanol) is reported as “kept in solution” and the “solubility in the final medium at cultivation temperature” value ([1]; 37° C., cell density below 10^5 cells/ml) is reported as “gradually precipitate”.

With `C[C@H](CCC(=O)O)[C@H]1CC[C@H]2[C@@H]3[C@H](O)C[C@@H]4C[C@H](O)CC[C@]4(C)[C@H]3C[C@H](O)[C@]12C` [Cholic acid] the “substitution for cholesterol in suspended cell culture” value (1E6 Mouse hybridoma) was “appears possible to substitute cholic acid for cholesterol” and the “surface tension of the medium” value [2] was “low surface tension”.

For `CC(O)CO` (centres unmarked) [propylene glycol], the “effects on cell growth and viability” value (adherent cells) was “positive effects on cell growth and viability”.

For `CC[C@H](CC[C@@H](C)[C@H]1CC[C@H]2[C@@H]3CC=C4C[C@@H](O)CC[C@]4(C)[C@H]3CC[C@]12C)C(C)C` [β-sitosterol], the “cell growth and viability / suitability as replacement of cholesterol” value (“cell growth and viability / suitability” for short) [3] was “functions well as a stimulant of cell growth and viability” and the stability in medium [1] was “less than satisfactory”.

For `CO` [Methanol], the “effect on cell growth (inhibition of cell growth)” value (Hybridoma cells) was “positive effects on cell growth”.

In the case of `CC(=O)O[C@H]1CC[C@@]2(C)C(=CC[C@H]3[C@@H]4CC[C@H]([C@H](C)CCCC(C)C)[C@@]4(C)CC[C@@H]32)C1` [Cholesteryl Acetate], the “cell growth and viability / suitability” value [3] is reported as “barely affected”, the “cell growth and viability / suitability” value ([3]; listed as cholesteryl acetate) is reported as “good results” and the stability in medium [1] is reported as “stable in solution”.
